In patent US6723753B2, “Substituted n-benzyl-n-phenyl aminoalcohol compounds useful for inhibiting cholesteryl ester transfer protein activity” (Pharmacia Corporation, priority 2002, dated 2004):

biological target: T1, CETP (Homo sapiens, UniProt P11597); assay: Assay of CETP Inhibition using Purified Components (Reconstituted Buffer Assay); type: biochemical; set-up: made in house; host or cells: CHO cells (serum-free conditioned medium); conditions: IC50, Inhibition of CETP activity in reconstituted buffer assay; transfer of [3H]CE from HDL to LDL
T1 sequence (P11597 18-493): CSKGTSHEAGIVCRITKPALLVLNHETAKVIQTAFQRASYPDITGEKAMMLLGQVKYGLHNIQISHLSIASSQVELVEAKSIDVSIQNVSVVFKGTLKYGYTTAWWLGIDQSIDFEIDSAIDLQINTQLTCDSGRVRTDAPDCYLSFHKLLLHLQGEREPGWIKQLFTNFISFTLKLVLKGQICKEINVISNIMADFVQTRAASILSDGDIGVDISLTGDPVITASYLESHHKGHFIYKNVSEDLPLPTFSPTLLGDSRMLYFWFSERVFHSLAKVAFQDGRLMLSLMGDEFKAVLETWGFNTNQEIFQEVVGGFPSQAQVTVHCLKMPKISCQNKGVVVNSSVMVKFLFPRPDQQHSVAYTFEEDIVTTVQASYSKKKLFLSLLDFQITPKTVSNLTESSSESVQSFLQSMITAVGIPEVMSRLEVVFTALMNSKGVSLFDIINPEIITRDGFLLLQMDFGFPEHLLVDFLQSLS
Procedure: Assay of CETP Inhibition using Purified Components (Reconstituted Buffer Assay)
The ability of compounds to inhibit CETP activity was assessed using an in vitro assay that measured the rate of transfer of radiolabeled cholesteryl ester ([^3H]CE) from HDL donor particles to LDL acceptor particles. Details of the assay are provided by Glenn, K. C. et al. (Glenn and Melton, “Quantification of Cholesteryl Ester Transfer Protein (CETP): A) CETP Activity and B) Immunochemical Assay of CETP Protein,” Meth. Enzymol., 263, 339-351 (1996)). Human recombinant CETP can be obtained from the serum-free conditioned medium of CHO cells transfected with a cDNA for CETP and purified as described by Wang, S. et al. (J. Biol. Chem. 267, 17487-17490 (1992)). To measure CETP activity, [^3H]CE-labeled-HDL, LDL, CETP and assay buffer (50 mM tris(hydroxymethyl)aminomethane, pH 7.4; 150 mM sodium chloride; 2 mM ethylenediamine-tetraacetic acid (EDTA); 1% bovine serum albumin) were incubated in a final volume of 200 μL, for 2 hours at 37° C. in 96 well plates. […] The inhibitors were then diluted 1:1 with CETP in assay buffer, and then 25 μL of that solution was mixed with 175 μL of lipoprotein pool for assay. Following incubation, LDL was differentially precipitated by the addition of 50 μL of 1% (w/v) dextran sulfate/0.5 M magnesium chloride, mixed by vortex, and incubated at room temperature for 10 minutes. A potion of the solution (200 μL) was transferred to a filter plate (Millipore). After filtration, the radioactivity present in the precipitated LDL was measured by liquid scintillation counting.
This value was defined as the IC50.
Examples of IC50 values determined by these methods are specified in Table 9.

Structure (SMILES)	IC50 [µM]
OC(CN(Cc1cccc(OC(F)(F)F)c1)Cc1cccc(OC(F)(F)F)c1)C(F)(F)F (stereo not drawn) [compound 192]	23

same assay, conditions: Inhibition of CETP activity in reconstituted buffer assay; transfer of [3H]CE from HDL to LDL; read-out: IC50

Structure (SMILES)	IC50 [µM]
CS(=O)(=O)c1ccc(CN(CC(O)C(F)(F)F)c2cccc(Oc3ccccc3)c2)cc1 (stereo not drawn) [Example 156]	40
OC(CN(Cc1cccc(OC(F)(F)C(F)F)c1)c1cccc(OCc2cc(F)cc(F)c2F)c1)C(F)(F)F (stereo not drawn) [Example 408]	0.75
Cc1ccc(CN(CC(O)C(F)(F)F)c2ccc(C)cc2)cc1 (stereo not drawn) [Example 8]	> 100
CN1CCN(C(=O)c2cccc(N(Cc3cccc(OC(F)(F)C(F)F)c3)CC(O)C(F)(F)F)c2)CC1 (stereo not drawn) [Example 470]	> 50
N#Cc1ncccc1Oc1cccc(N(Cc2cccc(OC(F)(F)C(F)F)c2)CC(O)C(F)(F)F)c1 (stereo not drawn) [Example 441]	1.2
OC(CN(Cc1cccc(OC(F)(F)C(F)F)c1)c1cccc(Nc2ccc(OC(F)(F)F)cc2)c1)C(F)(F)F (stereo not drawn) [Example 308]	15
O=C(NC1CCCC1)c1cccc(N(Cc2cccc(OC(F)(F)C(F)F)c2)CC(O)C(F)(F)F)c1 (stereo not drawn) [Example 461]	13
O=C(Nc1ccccc1)Nc1cccc(N(Cc2cccc(OC(F)(F)C(F)F)c2)CC(O)C(F)(F)F)c1 (stereo not drawn) [Example 546]	> 50
CCOC(=O)c1cccc(N(Cc2cccc(OC(F)(F)C(F)F)c2)CC(O)C(F)(F)F)c1 (stereo not drawn) [Example 456B, ethyl 3-[[[3-(1,1,2,2-tetra-fluoroethoxy)phenyl]methyl](3,3,3-trifluoro-2-hydroxypropyl)amino]-benzoate]	1.5
O=C(O)c1ccc(-c2cccc(N(Cc3cccc(OC(F)(F)C(F)F)c3)CC(O)C(F)(F)F)c2)cc1 (stereo not drawn) [Example 573]	> 50
OC(CN(Cc1cccc(OC(F)(F)C(F)F)c1)c1cccc(Oc2ccc(F)cc2Cl)c1)C(F)(F)F (stereo not drawn) [Example 230]	0.2
O=S(=O)(c1cccc(N(Cc2cccc(OC(F)(F)C(F)F)c2)CC(O)C(F)(F)F)c1)C1CCNCC1 (stereo not drawn) [Example 484]	> 50
FC(CN(Cc1cccc(OC(F)(F)C(F)F)c1)c1cccc(Oc2ccccc2)c1)C(F)(F)F (stereo not drawn) [Example 1669, N-(3-phenoxyphenyl)-N-(3,3,3,2-tetrafluoropropyl)-3-(1,1,2,2-tetrafluoroethoxy)benzenemethanamine]	17
OC(CN(Cc1cccc(OC(F)(F)C(F)F)c1)c1cccc(OCc2nccn2Cc2ccccc2)c1)C(F)(F)F (stereo not drawn) [Example 430]	> 50
OC(CNCc1cccc(OC(F)(F)F)c1)C(F)(F)F (stereo not drawn) [632A]	> 50
OC(CN(Cc1ccc(OC(F)(F)F)cc1)c1cc(F)cc(F)c1)C(F)(F)F (stereo not drawn) [Example 68]	15
OC(CN(Cc1cccc(OC(F)(F)C(F)F)c1)c1cccc(OCc2ccccc2Cl)c1)C(F)(F)F (stereo not drawn) [Example 404]	2.1
OC(CN(Cc1cccc(OC(F)(F)C(F)F)c1)c1cccc(Oc2ccc(C(F)(F)F)cc2F)c1)C(F)(F)F (stereo not drawn) [Example 224]	0.16
OC(CN(Cc1cccc(OC(F)(F)C(F)F)c1)c1cccc(-c2cccnc2)c1)C(F)(F)F (stereo not drawn) [Example 454]	4.6
OC(CN(Cc1cccc(OC(F)(F)C(F)F)c1)c1cccc(Cc2cccc(Cl)c2)c1)C(F)(F)F (stereo not drawn) [Example 525]	0.76
CC(C)(C)c1ccc(Cc2cccc(N(Cc3cccc(OC(F)(F)C(F)F)c3)CC(O)C(F)(F)F)c2)cc1 (stereo not drawn) [Example 520]	30
Cc1ccc(CN(CC(O)C(F)(F)F)c2ccccc2C)cc1 (stereo not drawn) [Example 13]	> 100
CCOc1ccc(Oc2cccc(N(Cc3cccc(OC(F)(F)C(F)F)c3)CC(O)C(F)(F)F)c2)cc1 (stereo not drawn) [Example 262]	3.7
CCc1ccc(COc2cccc(N(Cc3cccc(OC(F)(F)C(F)F)c3)CC(O)C(F)(F)F)c2)cc1 (stereo not drawn) [Example 415]	0.29
OC(CN(Cc1cccc(Oc2cccc(C(F)(F)F)c2)c1)c1ccc(C(F)(F)F)cc1)C(F)(F)F (stereo not drawn) [Example 110]	60
Cc1ccc(CN(Cc2ccc(F)cc2)CC(O)C(F)(F)F)cc1 (stereo not drawn) [compound 179]	> 100
OC(CN(Cc1cccc(OC(F)(F)C(F)F)c1)c1cccc(Nc2ccc(C(F)(F)F)cc2)c1)C(F)(F)F (stereo not drawn) [Example 295]	17

Structure (SMILES)	IC50 [µM]
COc1ccc(CN(CC(O)C(F)(F)F)c2cccc(OC(F)(F)F)c2)cc1OCc1ccccc1 (stereo not drawn) [Example 99]	> 100
OC(CN(Cc1cccc(Cl)c1)Cc1ccccc1C(F)(F)F)C(F)(F)F (stereo not drawn) [compound 175]	> 100
OC(CN(Cc1cccc(OC(F)(F)C(F)F)c1)c1cccc(Sc2ccccc2)c1)C(F)(F)F (stereo not drawn) [compound 290]	8.1
O=C(O)c1cccc(N(Cc2cccc(OC(F)(F)F)c2)CC(O)C(F)(F)F)c1 (stereo not drawn) [Example 586]	> 50
OC(CN(Cc1ccccn1)c1cccc(OC(F)(F)F)c1)C(F)(F)F (stereo not drawn) [Example 363]	40
O=S(=O)(Nc1cccc(N(Cc2cccc(OC(F)(F)C(F)F)c2)CC(O)C(F)(F)F)c1)c1cccc(C(F)(F)F)c1 (stereo not drawn) [Example 531]	> 50
N#Cc1cccc(N(Cc2ccc(C(F)(F)F)cc2)CC(O)C(F)(F)F)c1 (stereo not drawn) [Example 142]	40
N#CCCCOc1cccc(N(Cc2cccc(OC(F)(F)C(F)F)c2)CC(O)C(F)(F)F)c1 (stereo not drawn) [Example 501]	3.6
O=C(c1cccc(CN(CC(O)C(F)(F)F)c2cccc(Oc3ccccc3)c2)c1)N1CCCC1 (stereo not drawn) [compound 616]	18
OC(c1ccccc1)c1cccc(N(Cc2cccc(OC(F)(F)C(F)F)c2)CC(O)C(F)(F)F)c1 (stereo not drawn) [Example 583, α-Phenyl-3-[[[3-(1,1,2,2-tetrafluoroethoxy)phenyl]methyl]](3,3,3-trifluoro-2-hydroxypropyl)benzenemethanol]	6.4
OC(CN(Cc1c(F)cccc1F)c1cccc(OC(F)(F)F)c1)C(F)(F)F (stereo not drawn) [Example 330]	> 100
OC(CN(Cc1ccc(Oc2ccccc2)cc1)c1cccc(OC(F)(F)F)c1)C(F)(F)F (stereo not drawn) [Example 152]	8
Cc1cccc(CN(CC(O)C(F)(F)F)c2ccccc2C)c1 (stereo not drawn) [Example 27]	> 100
COc1cc(CN(CC(O)C(F)(F)F)c2cccc(OC(F)(F)F)c2)ccc1OC(C)=O (stereo not drawn) [Example 119]	70
COc1ccc(N(Cc2cccc(C(F)(F)F)c2)CC(O)C(F)(F)F)cc1 (stereo not drawn) [Example 51]	20
OC(CN(Cc1cccc(OC(F)(F)C(F)F)c1)c1cccc(OCc2ccc(Cl)cc2)c1)C(F)(F)F (stereo not drawn) [Example 424]	0.78
Cc1ccc(CN(CC(O)C(F)(F)F)c2ccc(F)c(F)c2)cc1 (stereo not drawn) [Example 24]	> 100
N#Cc1ccc(COc2cccc(N(Cc3cccc(OC(F)(F)C(F)F)c3)CC(O)C(F)(F)F)c2)cc1 (stereo not drawn) [Example 384]	1.6
OC(CN(Cc1cccc(OC(F)(F)C(F)F)c1)c1cccc(Cc2ccc(F)c(Cl)c2)c1)C(F)(F)F (stereo not drawn) [Example 524]	1.2
COC(=O)c1ccc(COc2cccc(N(Cc3cccc(OC(F)(F)C(F)F)c3)CC(O)C(F)(F)F)c2)cc1 (stereo not drawn) [Example 388]	3
OC(CN(Cc1cccc(OC(F)(F)C(F)F)c1)c1cccc(-c2ccco2)c1)C(F)(F)F (stereo not drawn) [Example 453]	8
O=[N+]([O-])c1cc(Cl)ccc1CN(CC(O)C(F)(F)F)c1cccc(Oc2ccccc2)c1 (stereo not drawn) [Example 684]	> 100
COc1ccc(N(CCCC(F)(F)F)c2cccc(N(Cc3cccc(OC(F)(F)C(F)F)c3)CC(O)C(F)(F)F)c2)cc1 (stereo not drawn) [Example 320]	32
CC(c1cccc([N+](=O)[O-])c1)N(CC(O)C(F)(F)F)c1cccc(Oc2ccccc2)c1 (stereo not drawn) [Example 205]	> 100
OC(CN(Cc1cccc(Oc2ncccn2)c1)c1cccc(Oc2ccccc2)c1)C(F)(F)F (stereo not drawn) [Example 605, 3-[(3-phenoxyphenyl) [[3-(2-pyrimidinyloxy)phenyl]methyl]amino]-1,1,1-trifluoro-2-propanol]	12
Nc1ccc(COc2cccc(N(Cc3cccc(OC(F)(F)C(F)F)c3)CC(O)C(F)(F)F)c2)cc1 (stereo not drawn) [Example 434, 3-[[3-[(4-aminophenyl)methoxy]phenyl][[3-(1,1,2,2-tetrafluoro-ethoxy)phenyl]methyl]amino]-1,1,1-trifluoro-2-propanol]	> 50
